According to patent publication US6231894A, “Treatments based on discovery that nitric oxide synthase is a paraquat diaphorase” (Duke University, priority 1999, dated 2001):

What was measured:
[1] = tested on: solid tumor; assay: Working Example VII: solid tumor patient; type: in vivo, human; conditions: treatment for seven days
Description: A person is given the anti-tumor agent 5,6 dimethylxanthemone-4-acetic acid (5,6 MEXAA) to treat a solid tumor identified by biopsy on the left lower extremity, and lung. […] At this time, the patient is treated with intravenous infusion of paraquat (4 milligram per kilogram) for seven cycles.

[2] = tested on: RAW-264.7 monocyte macrophage cells; assay: LDH release from macrophages (cytotoxicity); type: cell-based; conditions: conclusion of Background Example 4
Description: The RAW-264.7 monocyte macrophage cells line (TIB-71) was purchased from the American Type Culture Collection (Manassas, Va.). The cells were grown in T-75 flasks containing DMEM (Gibco-BRL, Grand Island, N.Y.) supplemented with 1 mM pyruvate, 4.5 g/L glucose and […] fetal bovine serum Macrophages were plated at 2.0×10^4 cells/well in 24-well plates and experiments were performed when cells were near confluence. Macrophages were immunostimulated with 50 ng/ml lipopolysaccharide (LPS) from E. coli serotype 0111:B4 (Signia, St. Louis, Mo.) and 50 U/ml recombinant mouse interferon gamma (INF-γ, R&D Systems, Minneapolis,Minn.). Macrophages were used between passages 2-8. Cell cultures were kept in a 37° C. incubator with air and 5% carbon dioxide.
NOS2 was induced in RAW cells using a mixture of interferon-γ and lipopolysaccharide (LPS) referred to as "cytomix." Unstimulated (basal) and activated (cytomix) macrophages were treated with 0.1 mM paraquat or not treated with paraquat and cytotoxicity and NO production were assessed at 24 hours.
Cell injury was assessed by measuring LDH release.
To further exclude the role of peroxynitrite, macrophages were treated with increasing concentrations of the NO-donor, DETA NONOate in the presence of 0.1 mM paraquat. Macrophage cytotoxicity and NO release were assessed 24 hours after treatments. Cell injury was assessed by measuring LDH release.

[3] = tested on: Rabbit aortic rings; assay: Exogenous NO-induced relaxation of aortic rings; conditions: 2 mM paraquat, phenylephrine 1 μM; FIG. 3(b)
Description: (§1) New Zealand white male rabbits weighting 3-4 kg were anaesthetized with phenobarbital (30 mg/kg/iv). The descending thoracic aorta was isolated and placed in Krebs-Henseleit buffer (pH 7.4) and stored at 4° C. until used. The vessels were cut into 5 mm rings and submerged in 25 ml double jacketed tissue baths containing Krebs-Henseleit buffer bubbled with 95% oxygen and 5% carbon dioxide at 37° C. Rings were hung on stainless steel stirrups connected to calibrated force transducers. Rings were equilibrated with 2 g resting tension for 1 hour before use and contracted with phenylephrine (1 μM). Rings were incubated with paraquat for 15 minutes before acetylcholine-induced or exogenous relaxations were performed.
In another case, rabbit aortic rings were constricted with 1 μM phenylephrine (initial contraction) and relaxed with increasing concentration of NO in the presence or absence of 2 mM paraquat. The results are shown in FIG. 3(b) where relaxations are expressed as a percent of the initial phenylephrine-induced contraction.

[4] = Therapeutic use of NO-derivatized L-NAME variant; type: in vivo; conditions: nitrite ester variant
From the text: The invention is explained and illustrated by the following background examples and working examples. In the examples the NO-derivatized LNAME is the compound of formula (I) where R^3 is CH3 and R^1 is --(CH2)2 --ONO2. This compound is made by starting with N^ω -nitro-α-(2-hydroxyethyl)-L-arginine made as described above, forming the tert-butyloxycarbonyl derivative, dissolving in methanol, adding […], using non-aqueous trifluoroacetic acid to remove the protecting group and converting to the nitrate ester.

[5] = Working Example IV: patient with E. Coli bacteremia; type: in vivo, human
Description: A person with E. Coli bacteremia presents with a fever of 101° F. and a blood pressure of 70/50. […] The drug is stopped and they are begun on NO-derivatized L-NAME at 0.1 mg/kg/minute. […] Blood pressure rises to 100/80.

[6] = Working Example III: stroke patient; type: in vivo, human
From the text: A person presents with confusion and weakness in the left arm. […] The L-NAME is stopped and the patient is given an NO derivatized L-NAME compound at 0.1 milligram per kilogram per minute IV which lowers the blood pressure to 170/100.

[7] = tested on: CPA-47 endothelial cell line; assay: LDH release from endothelial cells (cytotoxicity); type: cell-based; conditions: increasing inhibitor concentrations with 2 mM paraquat, 24 hours; FIG. 2(b)
Description: To test whether the above effect was present in intact cells, endothelial cell cultures, constitutively expressing NOS3 protein as determined by western blot analysis, were treated with 2 mM paraquat in the presence of increasing concentrations of either L-NAME or L-NMMA.
The endothelial cells were obtained as follows: CPA-47 endothelial cell line (CRL-1733) was purchased from American Type Culture Collection (Manassas, Va.). Endothelial cells were grown in T-75 flasks containing Ham's F-12 K medium supplemented by 1 mM […] and 10% equine serum (Gibco-BRL, Grand Island, N.Y.). Endothelial cells were plated at 3.5×10^4 cells/well in 24-well plates and experiments were performed 48 hours later when cells were near confluence. Medium was changed to minimal essential medium without serum supplement. Endothelial cells were from passages 30-36.
Cytotoxicity was measured as the percent release of LDH and compared to vehicl-treated cells (basal). The percent release of cytosolic lactate dehydrogenase (LDH) into the culture medium was used to assess the integrity of the cell membrane. LDH activity was measured by following the loss of NADH at 340 nm as described in Day, B. J., et al., J. Pharmacol. Exp. Ther. 275, 1227-1232 (1995). The percent release of LDH into the culture medium 24 hours after the paraquat treatment was used to assess cell injury.

[8] = Working Example XIV: congestive heart failure and COPD patient; type: in vivo, human; conditions: 10 milligram per kilogram IV bolus and IV drip 0.5 milligrams per kilograms per minute
From the text: A patient with congestive heart failure and COPD presents acutely short of breath. They are intubated for respiratory failure. […] Their FEV1 is 0.8. The patient has a protracted hospital course and attempts to wean them from the ventilator are unsuccessful. They are then started on 10 milligram per kilogram IV bolus of L-NMMA and an intravenous drip at 0.5 milligrams per kilograms per minute.

[9] = target: T1, Recombinant rat neuronal nitric oxide synthase (NOS1) (Rattus norvegicus, UniProt P29476); assay: NADPH oxidation (paraquat diaphorase activity) by recombinant rat neuronal nitric oxide synthase; type: biochemical; conditions: NOS inhibitor 1 mM, FIG. 2(a); for effect on paraquat-stimulated NADPH oxidation: 25 μM paraquat; for effect on basal NADPH oxidation: no paraquat
T1 construct: purchased Oxis, Portland, Oreg
Description: Recombinant rat neuronal nitric oxide synthase (NOS1, Oxis, Portland, Oreg.), a constitutive enzyme, was used to assay NADPH oxidation in the presence of increasing concentrations of paraquat. Reactions (0.2 ml) were performed in bis-tris propane buffer (40 mM) containing L-arginine (1 mM), CaCl2 (1.2 mM), EDTA (0.9 mM), NADPH (0.35 mM), dithiothreitol (3 mM), tetrahydrobiopterin (4 μM), catalase (1 μg/ml) and calmodulin (200 U/ml) at pH 7.4. Reactions were initiated by the addition of 1.5 U of NOS1, and the oxidation of NADPH was continuously monitored at 340 nm for 1 minute at 37° C. in a plate reader. The rate of NOS-mediated NADPH oxidation was determined using an extinction coefficient of 6.22 mM^-1 cm^-1 after subtracting the baseline of NADPH oxidation.
The experiment of Background Example 1 for NADPH oxidation was carried out in the presence and absence of 25 μM paraquat, without any NOS inhibitor (control), in the presence of L-NAME (1 mM) or in the presence of 1 mM L-NMMA. […] Only L-NAME shut down the NADPH oxidase activity.

[10] = Working Example X: embolic stroke patient; type: in vivo, human; conditions: 10 mg IV bolus followed by 4.5 mg per kilogram per minute; L-NMMA 30 minutes, L-NAME following day
Description: A person with middle cerebral arterial embolic stroke presents to the Emergency Room unconscious. […] After 30 minutes the therapy is stopped and they receive L-NAME at the same dose.

[11] = tested on: breast cancer; assay: Working Examples XI and XII: breast cancer patient; type: in vivo, human
Description: A person presents with breast cancer and is treated with standard regimen including adriamycin. […] They are given an infusion of a temperature-sensitive liposome encapsulated nitric oxide synthase, which is released in to the tumor by local heat (40-42° centigrate).
The adriamycin infusion in Example X after liposome encapsulated nitric oxide synthase treatment is replaced by 2 mg per day of diquat for six days.

[12] = tested on: Rabbit aortic rings; assay: Acetylcholine-induced (EDRF) relaxation of aortic rings; conditions: Oryctolagus cuniculus; L-NAME (2 mM), acetylcholine, phenylephrine 1 μM; FIG. 3(a); read-out: inhibition of the relaxation response
Description: Rabbit aortic rings were treated with increasing concentrations of paraquat or L-NAME (2 mM) prior to initiating a constriction response with 1 μM phenylephrine (initial contraction).
as §1
Endothelial-derived relaxing factor (EDRF) responses were initiated by addition of acetylcholine.

[13] = Working Example IX: breast cancer patient with adriamycin toxicity; type: in vivo, human
From the text: A person with metastatic breast cancer receives adriamycin in the standard regimen. […] They are begun on the nitric oxide synthase inhibitor L-NAME 0.5 milligrams per kilogram per minute and their systolic blood pressure is then titrated to 100-120 mm Hg. Over the following two weeks, their ejection fraction improves to 50% and the drug is stopped.

[14] = Working Example I: patient exposed to paraquat; type: in vivo, human; conditions: L-NAME IV 0.1 mg per kilogram per minute
Description: A person presents complaining of shortness of breath after working with paraquat. […] An intravenous line is inserted and the patient is started on IV infusion of 0.1 mg per kilogram per minute L-NAME. […] Over the following two days they are weaned off L-NAME.

[15] = 0.1 mg/kg/minute, after L-NMMA stopped
[16] = 0.1 milligram per kilogram per minute IV

T1 sequence (P29476 whole entry): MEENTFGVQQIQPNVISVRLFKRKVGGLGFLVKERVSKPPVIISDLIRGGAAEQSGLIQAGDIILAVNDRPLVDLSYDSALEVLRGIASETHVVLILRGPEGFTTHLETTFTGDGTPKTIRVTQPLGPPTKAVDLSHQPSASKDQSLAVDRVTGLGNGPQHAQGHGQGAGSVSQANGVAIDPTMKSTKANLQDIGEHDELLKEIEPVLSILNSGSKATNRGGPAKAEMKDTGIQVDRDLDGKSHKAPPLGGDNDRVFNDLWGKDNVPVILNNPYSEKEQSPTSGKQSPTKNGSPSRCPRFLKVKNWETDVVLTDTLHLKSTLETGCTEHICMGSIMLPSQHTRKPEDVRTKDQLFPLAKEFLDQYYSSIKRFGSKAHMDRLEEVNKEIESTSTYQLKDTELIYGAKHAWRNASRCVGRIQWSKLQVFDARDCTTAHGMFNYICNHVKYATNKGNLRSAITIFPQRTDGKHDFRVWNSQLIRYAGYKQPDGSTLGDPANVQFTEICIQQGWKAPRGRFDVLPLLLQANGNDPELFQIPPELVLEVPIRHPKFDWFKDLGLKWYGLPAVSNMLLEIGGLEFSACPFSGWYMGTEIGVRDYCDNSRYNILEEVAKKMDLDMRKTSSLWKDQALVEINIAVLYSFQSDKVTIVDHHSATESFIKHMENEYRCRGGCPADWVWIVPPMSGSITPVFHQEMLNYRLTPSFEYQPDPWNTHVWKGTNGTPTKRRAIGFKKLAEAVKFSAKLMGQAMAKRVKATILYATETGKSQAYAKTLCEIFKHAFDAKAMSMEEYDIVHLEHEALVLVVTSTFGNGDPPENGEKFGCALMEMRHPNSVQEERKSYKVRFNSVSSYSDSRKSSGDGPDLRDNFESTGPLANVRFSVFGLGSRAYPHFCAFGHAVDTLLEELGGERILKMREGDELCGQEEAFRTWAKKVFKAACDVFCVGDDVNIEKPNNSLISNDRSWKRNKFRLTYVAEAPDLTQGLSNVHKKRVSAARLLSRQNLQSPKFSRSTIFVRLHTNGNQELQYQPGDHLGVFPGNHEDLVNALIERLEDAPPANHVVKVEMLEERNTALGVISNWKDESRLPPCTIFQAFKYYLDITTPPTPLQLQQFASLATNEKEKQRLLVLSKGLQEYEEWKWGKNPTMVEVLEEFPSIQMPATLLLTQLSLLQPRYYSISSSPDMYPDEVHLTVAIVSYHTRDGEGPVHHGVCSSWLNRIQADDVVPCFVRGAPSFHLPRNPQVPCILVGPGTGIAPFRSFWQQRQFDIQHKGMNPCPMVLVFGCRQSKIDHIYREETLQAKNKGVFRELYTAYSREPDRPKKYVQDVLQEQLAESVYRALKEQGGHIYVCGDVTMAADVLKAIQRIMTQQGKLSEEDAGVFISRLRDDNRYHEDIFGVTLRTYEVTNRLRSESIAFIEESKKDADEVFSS

Cc1ccc2c(=O)c3cccc(CC(=O)O)c3oc2c1C [5,6 MEXAA, 5,6 dimethylxanthemone-4-acetic acid]
nitric oxide synthase expression in the tumor on biopsy [1]: increase in nitric oxide synthase expression in the tumor

nitric oxide [NO]
cell killing / amelioration of toxicity, conclusion [2]: toxicity can be ameliorated by putting NO back into the system
effect on exogenously added NO-induced relaxation [3]: NO still works in a system where NO is inhibited and superoxide is generated

COC(=O)[C@@](N)(CCCNC(=N)N[N+](=O)[O-])CCON=O
therapeutic results [4]: Therapeutic results are also obtained

COC(=O)[C@@](N)(CCCNC(=N)N[N+](=O)[O-])CCO[N+](=O)[O-] [NO-derivatized L-NAME]
cardiac output [5, 15]: Cardiac output normalizes
pulmonary pressure [5, 15]: Pulmonary pressure normalizes
blood pressure ([5]; 0.1 mg/kg/minute, 70/50 at presentation): 100/80
symptoms of stroke [6, 16]: symptoms of confusion abate and motion returns to the arm
blood pressure after switch to NO derivatized L-NAME ([6]; 0.1 milligram per kilogram per minute IV, from 220/110): 170/100

CNC(=N)NCCC[C@H](N)C(=O)O [L-NMMA, L-N-methylarginine]
protection from paraquat toxicity (LDH release) [7]: not L-NMMA, produced a dose-dependent protection from paraquat toxicity
weaning from the ventilator [8]: weaned from the ventilator over the following day
pulmonary hypertension and cardiac output ([5]; L-NMMA infusion 10 mg/kg/hr.): profound pulmonary hypertension and a fall in cardiac output
effect on paraquat-stimulated NADPH oxidation [9]: partially blocked paraquat-induced NADPH oxidation
effect on basal NADPH oxidation [9]: small increase in basal NADPH oxidation
improvement / consciousness [10]: without improvement

c1cc[n+]2c(c1)-c1cccc[n+]1CC2 [diquat]
tumor regression ([11]; diquat 2 mg per day for six days after liposome encapsulated nitric oxide synthase): The tumor is shown to regress

COC(=O)[C@@H](N)CCCNC(=N)N[N+](=O)[O-] [L-NAME, L-nitroarginine, methyl ester]
protection from paraquat toxicity (LDH release) [7]: dose-dependent protection from paraquat toxicity
inhibition at 2000 µM [12]: > 90%
ejection fraction on L-NAME ([13]; 0.5 milligrams per kilogram per minute, two weeks, from 35%): 50%
symptoms of stroke [6, 16]: symptoms do not improve
blood pressure during L-NAME ([6]; L-NAME 0.1 milligram per kilogram per minute IV): 220/110
symptoms ([14]; over the day): symptoms improve over the day
arteriolar PO2 ([14]; increases from 60, over the day): 85 mm Hg
effect on paraquat-stimulated NADPH oxidation [9]: completely inhibited paraquat-stimulated NADPH oxidation
effect on basal NADPH oxidation [9]: little effect on basal NADPH oxidation
improvement / consciousness [10]: regains consciousness

COc1cccc2c1C(=O)c1c(O)c3c(c(O)c1C2=O)C[C@@](O)(C(=O)CO)C[C@@H]3O[C@H]1C[C@H](N)[C@H](O)[C@H](C)O1 [adriamycin]
tumor regression ([11]; adriamycin after temperature-sensitive liposome encapsulated nitric oxide synthase released by local heat, six cycles): the tumor is shown to regress after six cycles of therapy
tumor response to adriamycin alone ([11]; standard regimen including adriamycin): The tumor fails to respond
adverse effect of adriamycin ([13]; standard regimen): light sensitivity and shortness of breath
ejection fraction after adriamycin ([13]; standard regimen, echocardiogram): 35%
